test system: P. falciparum 3D7 growth, pLDH absorbance; test: P. falciparum 3D7 growth inhibition, dose response, strain 3D7 (AID 2305)

Cc1ccc(NC(=O)c2ccc(-c3cc4cc(Cl)c(Cl)cc4[nH]3)cc2)cc1OCCN1CCCC1 and O=C(NCCc1ccc(Cl)c(Cl)c1)C1CCCN(C(=O)c2ccc(O)c(-c3ccc(Cl)c(Cl)c3)c2)C1 (stereo not drawn) are within 1.5-fold of each other in IC50: 990 nM for the first, 780 nM for the second.

COc1c(Br)cc(Br)cc1C(C)=O and CCOC(=O)CCCOc1c(OC)cc(Cc2cnc(N)nc2N)cc1OC are within 1.5-fold of each other in IC50: 990 nM for the first, 780 nM for the second.

Nc1ccc(-c2nc3c(ccc4ccccc43)[nH]2)cc1 and Cc1cccc2[nH]c(-c3ccc(-c4cccc(CN5CCCC5CN)c4)cc3)nc12 (stereo not drawn) are within 1.5-fold of each other in IC50: 940 nM for the first, 910 nM for the second.

Compared with COc1ccc(CCNCCCCCCNCCc2ccc(OC)c(OC)c2Cl)c(Cl)c1OC, CCCCCCCC1CC(CC(=O)Nc2ccnc3ccc(OC)cc23)CN1 (stereo not drawn) is 1.8-fold lower in IC50: 900 nM for the first, 510 nM for the second.

CN(C)CCN(C)Cc1cccc(-c2cccc(NC(=O)c3cccc(C#N)c3)c2)c1 and O=C(Nc1cccc(-c2ccc(CN3CCC(O)CC3)cc2)c1)c1cccc(Cl)c1 are within 1.5-fold of each other in IC50: 870 nM for the first, 760 nM for the second.

Going from O=C(Nc1ccc(CCN2CCC(c3nc(COCC(F)(F)F)c(-c4ccccc4)o3)CC2)cc1)c1ccc(F)cc1 to OCC1CCN(Cc2ccc(-c3cccc(-c4nc5ccc(C(F)(F)F)cc5[nH]4)c3)cc2)CC1, the IC50 falls from 1970 nM to 480 nM (4.1-fold). The second is the more potent here.

Compared with CC(=O)C1(c2ccccc2)CCN(CCC2(c3ccc(Cl)c(Cl)c3)CN(C(=O)Nc3cc(F)cc(F)c3)CCO2)CC1 (stereo not drawn), O=C(Nc1ccccc1)N1CCC(CN2CCOC(c3ccccc3)(c3ccccc3)C2)CC1 is 7-fold lower in IC50: 1480 nM for the first, 210 nM for the second.

Compared with CCc1ccc(Cc2cnc3nc(N)nc(N)c3c2C)cc1CC, COc1cc(Cc2cnc(N)nc2N)ccc1OCc1cccc(Oc2ccccc2)c1 is 4.6-fold higher in IC50: 290 nM for the first, 1330 nM for the second. The first is the more potent here.

First: CCn1cnc2c(N3CCCS3(=O)=O)cc(C(=O)N[C@@H](Cc3ccccc3)[C@H](O)CNC(C)(C)c3cccc(C(F)(F)F)c3)cc21
Second: CCc1cn(C)c2c(N3CCCC3=O)cc(C(=O)N[C@@H](Cc3ccccc3)[C@H](O)CNC3CCCCC3)cc12
The IC50 of the first is 1.9-fold higher: 230 nM for the first, 120 nM for the second.

First: NC(=Nc1nc(-c2ccccn2)cc2ccccc12)c1cccc(Cl)c1
Second: Cc1csc2nc(-c3ccccn3)nc(Nc3ccc4ncsc4c3)c12
The IC50 of the first is 3.6-fold lower: 310 nM for the first, 1110 nM for the second. The first is the more potent here.

Going from CC(C)(C)OC(=O)N[C@@H](Cc1ccccc1)C(=O)Nc1cccc(-c2cccc(NC(=O)[C@H](Cc3ccccc3)NC(=O)OC(C)(C)C)c2)c1 to COCCNC(=O)C(CNC(=O)c1ccc2c(c1)OCO2)NC(=O)c1ccc(-c2ccccc2)cc1 (stereo not drawn), the IC50 rises from 610 nM to 970 nM (1.6-fold).

COCCn1c(-c2cccc(Cl)c2)nn(-c2ccc([N+](=O)[O-])cc2Cl)c1=S and O=C(/C=C/c1ccc(Cl)cc1)NCCCCCN1CCC(C(=O)Nc2cccc(Cl)c2)CC1 are within 1.5-fold of each other in IC50: 740 nM for the first, 850 nM for the second.

O=C(NCCN1CCCCC1)c1cc2cc(-c3ccccc3)ccc2n1S(=O)(=O)c1ccccc1 and CC(C)CNCc1cccc(-c2ccc(CN(CCCN3CCN(C)CC3)C(=O)CCC3CCCC3)cc2)c1 are within 1.5-fold of each other in IC50: 1120 nM for the first, 880 nM for the second.

Going from CC(=O)Nc1cccc(C(=O)Nc2ccc(-c3ccc(-c4nc5c(C)cccc5[nH]4)s3)cc2)c1 to Cc1ccc(NC(=O)Nc2ccc(Cl)c(C(F)(F)F)c2)cc1-c1ccc(C(=O)Nc2ccncc2)cc1, the IC50 falls from 1740 nM to 260 nM (6.7-fold).

First: CC(=O)c1cccc(NC(=O)NC2CCN(c3ccnc(Nc4ccc(F)cc4)n3)C2)c1 (stereo not drawn)
Second: COc1ccc2nccc(NC(=O)N3CCC(NCc4cc5c(F)ccc(F)c5[nH]4)CC3)c2n1
The IC50 of the first is 3-fold higher: 650 nM for the first, 220 nM for the second.

COc1cccc(C(=O)[C@H]2C[C@@H]2CN2CC=C(c3c[nH]c4cccc(Br)c34)CC2)c1 and CC(C)[C@H](NC(=O)c1ccc(O)c(-c2cccc(C(F)(F)F)c2)c1)C(=O)NC1CCCc2ccccc21 (stereo partly drawn) are within 1.5-fold of each other in IC50: 750 nM for the first, 930 nM for the second.

Going from COc1cc2ncnc(Nc3ccc(OCc4ccccc4)c(C(F)(F)F)c3)c2cc1OC to Cn1ncc2c3c(CCN4CCC(NCc5ccc6c(c5)NC(=O)CO6)CC4)c(Cl)cnc3ccc21, the IC50 rises from 250 nM to 490 nM (2-fold). The first is the more potent here.

CCN(CCCN1CCCCC1)c1cc(C)nc(Nc2cc(F)cc(F)c2)n1 and CC(C)C(C(=O)n1cc2c(ccc3nc(N)nc(N)c32)n1)C(C)C are within 1.5-fold of each other in IC50: 570 nM for the first, 790 nM for the second.

Cc1[nH]c(C)c(-c2ccc(S(=O)(=O)c3ccc(Cl)cc3)cc2)c(=O)c1Br and CC=CCON1C(N)=NC(N)=NC1(C)C are within 1.5-fold of each other in IC50: 40 nM for the first, 30 nM for the second.

Source: PubChem BioAssay AID2305 (GlaxoSmithKline (GSK), 2010)
